Biological target: T1, ASGP receptor (biotinylated ASGPR) (Homo sapiens, UniProt P07306)
T1 construct: biotin (biotinylated)
T1 sequence (P07306 1-291): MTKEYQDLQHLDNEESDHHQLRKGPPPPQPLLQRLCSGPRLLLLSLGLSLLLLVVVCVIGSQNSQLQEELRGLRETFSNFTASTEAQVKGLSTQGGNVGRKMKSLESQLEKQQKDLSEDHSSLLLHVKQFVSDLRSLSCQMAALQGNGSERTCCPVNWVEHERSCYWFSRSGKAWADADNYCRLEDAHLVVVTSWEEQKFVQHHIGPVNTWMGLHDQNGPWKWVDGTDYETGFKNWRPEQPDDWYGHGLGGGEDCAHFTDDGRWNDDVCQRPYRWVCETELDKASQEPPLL
Type: binding
Conditions: SPR, Biacore 8K, 25° C.; Table 1A; read-out: ASGPR KD

Row | Kd | SMILES
1 | < 10 µM | O=C(NC[C@H]1OC[C@H](Nc2cncc(C(F)(F)F)n2)[C@@H](O)[C@H]1O)c1ccc2ncncc2c1 [A17, N-(((2R,3R,4R,5S)-3,4-dihydroxy-5-((6-(trifluoromethyl)pyrazin-2-yl)amino)tetrahydro-2H-pyran-2-yl)methyl)quinazoline-6-carboxamide]
2 | < 10 µM | O=C(O)CCC(=O)NC1CC2(C1)CC(NC(=O)C[C@H]1OC[C@H](Nc3cncc(C(F)(F)F)n3)[C@@H](O)[C@H]1O)C2 (stereo partly shown) [A93]
3 | < 10 µM | OC[C@H]1CC[C@H](Nc2cncc(C(F)(F)F)n2)[C@@H](O)[C@H]1O [A65, (1R,2S,3R,6S)-3-(hydroxymethyl)-6-((6-(trifluoromethyl)pyrazin-2-yl)amino)cyclohexane-1,2-diol]
4 | < 10 µM | O=C(NC[C@H]1OC[C@H](Nc2cncc(C(F)(F)F)n2)[C@@H](O)[C@H]1O)c1ccccn1 [A74, N-(((2R,3R,4R,5S)-3,4-dihydroxy-5-((6-(trifluoromethyl)pyrazin-2-yl)amino)tetrahydro-2H-pyran-2-yl)methyl)picolinamide]
5 | < 10 µM | NCCOCCOCC(=O)NC[C@H]1OC[C@H](Nc2cncc(C(F)(F)F)n2)[C@@H](O)[C@H]1O [A57, 2-(2-(2-aminoethoxy)ethoxy)-N-(((2R,3R,4R,5S)-3,4-dihydroxy-5-((6-(trifluoromethyl)pyrazin-2-yl)amino)tetrahydro-2H-pyran-2-yl)methyl)acetamide]
6 | < 10 µM | O=C(O)COc1ccc(CC(=O)NC[C@H]2OC[C@H](Nc3cncc(C(F)(F)F)n3)[C@@H](O)[C@H]2O)cc1 [A1, 2-(4-(2-((((2R,3R,4R,5S)-3,4-dihydroxy-5-((6-(trifluoromethyl)pyrazin-2-yl)amino)tetrahydro-2H-pyran-2-yl)methyl)amino)-2-oxoethyl)phenoxy)acetic acid]
7 | < 10 µM | O=C(O)CNC(COCCC(=O)NCCOCCOCCOCCO[C@@H]1O[C@H](CO)[C@H](O)[C@H](O)[C@H]1Nc1cncc(C(F)(F)F)n1)COCCC(=O)NCCOCCOCCOCCO[C@@H]1O[C@H](CO)[C@H](O)[C@H](O)[C@H]1Nc1cncc(C(F)(F)F)n1 [A35, (1,35-bis(((2R,3R,4R,5R,6R)-4,5-dihydroxy-6-(hydroxymethyl)-3-((6-(trifluoromethyl)pyrazin-2-yl)amino)tetrahydro-2H-pyran-2-yl)oxy)-13,23-dioxo-3,6,9,16,20,27,30,33-octaoxa-12,24-diazapentatriacontan-18-yl)glycine]

Same assay, conditions: SPR, Biacore 8K, 25° C.; Table 1B, numeric bound; read-out: ASGPR Kd

Row | Kd | SMILES
8 | > 30 µM | OC[C@H]1OC[C@H](N(CC2CC2)CC2CC2)[C@@H](O)[C@H]1O [A160, (2R,3R,4R,5S)-5-(bis(cyclopropylmethyl)amino)-2-(hydroxymethyl)tetrahydro-2H-pyran-3,4-diol]

Same assay, conditions: SPR, Biacore 8K, 25° C.; Table 1B; read-out: ASGPR Kd

Row | Kd | SMILES
9 | < 10 µM | OC[C@H]1OC[C@H](Nc2cncc(Cl)n2)[C@@H](O)[C@H]1O [A147, (2R,3R,4R,5S)-5-((6-chloropyrazin-2-yl)amino)-2-(hydroxymethyl) tetrahydro-2H-pyran-3,4-diol]
10 | < 10 µM | C[C@H]1OC[C@H](Nc2cncc(C(F)(F)F)n2)[C@@H](O)[C@H]1O [A155, (2R,3R,4R,5S)-2-methyl-5-((6-(trifluoromethyl)pyrazin-2-yl)amino)tetrahydro-2H-pyran-3,4-diol]

Same assay, conditions: SPR, Biacore 8K, 25° C.; Table 1C, numeric bound; read-out: ASGPR KD

Row | Kd | SMILES
11 | > 30 µM | OC[C@H]1OC[C@H](Nc2ncc3c(n2)CCC3)[C@@H](O)[C@H]1O [A182, (2R,3R,4R,5S)-5-((6,7-dihydro-5H-cyclopenta[d]pyrimidin-2-yl)amino)-2-(hydroxymethyl)tetrahydro-2H-pyran-3,4-diol]

Same assay, conditions: SPR, Biacore 8K, 25° C.; Table 1C; read-out: ASGPR KD

Row | Kd | SMILES
12 | < 10 µM | OC[C@H]1OC[C@H](Nc2cccc(OC(F)F)n2)[C@@H](O)[C@H]1O [A185, (2R,3R,4R,5S)-5-((6-(difluoromethoxy)pyridin-2-yl)amino)-2-(hydroxymethyl)tetrahydro-2H-pyran-3,4-diol]
13 | < 10 µM | CC(C)(C)OC(=O)N1CC2CN(C[C@H]3OC[C@H](Nc4cncc(C(F)(F)F)n4)[C@@H](O)[C@H]3O)CC21 (stereo partly drawn) [A230, tert-butyl 3-(((2R,3R,4R,5S)-3,4-dihydroxy-5-((6-(trifluoromethyl)pyrazin-2-yl)amino)tetrahydro-2H-pyran-2-yl)methyl)-3,6-diazabicyclo [3.2.0] heptane-6-carboxylate]
14 | < 10 µM | N#Cc1ncc(OC[C@H]2OC[C@H](Nc3cncc(C(F)(F)F)n3)[C@@H](O)[C@H]2O)cn1 [A203, 5-(((2R,3R,4R,5S)-3,4-dihydroxy-5-((6-(trifluoromethyl)pyrazin-2-yl)amino)tetrahydro-2H-pyran-2-yl)methoxy)pyrimidine-2-carbonitrile]
15 | < 10 µM | O[C@@H]1[C@H](O)[C@@H](Oc2cccc(C(F)(F)F)n2)CO[C@@H]1COc1ccc(Br)cc1 [A238]
16 | < 10 µM | O[C@@H]1[C@H](O)[C@@H](Oc2cccc(C(F)(F)F)n2)CO[C@@H]1COc1ccccn1 [A287]
17 | < 10 µM | O[C@@H]1[C@H](O)[C@@H](Nc2cccc(C(F)(F)F)n2)CO[C@@H]1CN1CCc2ccccc2C1 [A268]
18 | < 10 µM | O=C(O)c1ccc(CN2CCN(C[C@H]3OC[C@H](Nc4cncc(C(F)(F)F)n4)[C@@H](O)[C@H]3O)CC2)nn1 [A205, 6-((4-(((2R,3R,4R,5S)-3,4-dihydroxy-5-((6-(trifluoromethyl)pyrazin-2-yl)amino)tetrahydro-2H-pyran-2-yl)methyl)piperazin-1-yl)methyl)pyridazine-3-carboxylic acid]
19 | < 10 µM | COC(=O)/C=C/[C@H]1O[C@H](C)[C@H](O)[C@H](O)[C@H]1Oc1cccc(C(F)(F)F)n1 [A333]
20 | < 10 µM | C[C@H]1O[C@H](c2ncncc2F)[C@H](Oc2cccc(C(F)(F)F)n2)[C@@H](O)[C@H]1O [A338]

Second part, the compound before the results:

Row | SMILES | Kd
21 | C[C@H]1O[C@H](c2cn(C3CCNCC3)nn2)[C@H](Oc2cccc(C(F)(F)F)n2)[C@@H](O)[C@H]1O [A218, (2R,3R,4S,5R,6R)-2-methyl-6-(1-(piperidin-4-yl)-1H-1,2,3-triazol-4-yl)-5-((6-(trifluoromethyl)pyridin-2-yl)oxy)tetrahydro-2H-pyran-3,4-diol] | < 10 µM
22 | O=C(O)c1ccc(OC[C@H]2OC[C@H](Oc3cccc(C(F)(F)F)n3)[C@@H](O)[C@H]2O)nn1 [A246] | < 10 µM
23 | OC[C@H]1O[C@H](Oc2ccc(N3CCNCC3)cc2)[C@H](Oc2cccc(C(F)(F)F)n2)[C@@H](O)[C@H]1O [A237] | < 10 µM
24 | O[C@@H]1[C@H](O)[C@@H](Oc2cccc(C(F)(F)F)n2)CO[C@@H]1COc1ccc(-c2ccccc2)cc1 [A190, (2R,3R,4S,5S)-2-(([1,1′-biphenyl]-4-yloxy)methyl)-5-((6-(trifluoromethyl)pyridin-2-yl)oxy)tetrahydro-2H-pyran-3,4-diol] | < 10 µM
25 | O[C@@H]1[C@H](O)[C@@H](Oc2cccc(C(F)(F)F)n2)CO[C@@H]1CN1CCN(c2cnccn2)CC1 [Compound A248] | < 10 µM
26 | O[C@@H]1[C@H](O)[C@@H](Oc2cccc(C(F)(F)F)n2)CO[C@@H]1c1cn(C2CCNCC2)nn1 [A224, (2R,3R,4S,5S)-2-(1-(piperidin-4-yl)-1H-1,2,3-triazol-4-yl)-5-((6-(trifluoromethyl)pyridin-2-yl)oxy)tetrahydro-2H-pyran-3,4-diol] | < 10 µM

Same assay, conditions: SPR, Biacore 8K, 25° C.; Table 1D, numeric bound; read-out: ASGPR KD

Row | Kd | SMILES
27 | > 30 µM | O=C(OCc1ccccc1)N1C[C@H](O)[C@H](O)[C@@H](S(=O)(=O)c2cncc(C(F)(F)F)n2)C1 [A358]
28 | > 30 µM | O=C(OCc1ccccc1)N1C[C@H](O)[C@H](O)[C@@H]([S@+]([O-])c2cccc(C(F)(F)F)n2)C1 [A355]
29 | > 30 µM | O[C@@H]1[C@@H](Nc2ncnn3cccc23)CNC[C@@H]1O [A400]

Same assay, conditions: SPR, Biacore 8K, 25° C.; Table 1D; read-out: ASGPR KD

Row | Kd | SMILES
30 | < 10 µM | O[C@@H]1[C@@H](Nc2cncc(C(F)(F)F)n2)CN(c2cccnn2)C[C@@H]1O [A395]
31 | < 10 µM | O=C(OCc1ccccc1)N1CCC(c2cnc(OC[C@H]3OC[C@H](Nc4cncc(C(F)(F)F)n4)[C@@H](O)[C@H]3O)cn2)CC1 [A409]
32 | < 10 µM | O[C@@H]1[C@@H](Nc2cncc(C(F)(F)F)n2)CN(CC(F)(F)F)C[C@@H]1O [A367]
33 | < 10 µM | O=C(O)c1ccc(-c2ccc(C(=O)N3C[C@H](Nc4cncc(C(F)(F)F)n4)[C@@H](O)[C@@H](O)C3)cc2)cc1 [A383]
34 | < 10 µM | O=C(O)c1ccc(C(=O)N2C[C@H](Nc3cncc(C(F)(F)F)n3)[C@@H](O)[C@@H](O)C2)nc1 [A392]

Further lines, the compound ahead of its results:

Row | SMILES | Kd
35 | CCOC(=O)c1nc(N2C[C@H](Oc3cccc(C(F)(F)F)n3)[C@@H](O)[C@@H](O)C2)no1 [A360] | < 10 µM
36 | O[C@@H]1[C@@H](Nc2nc(Cl)nn3cccc23)CNC[C@@H]1O [A382] | 10 to 100 µM
37 | O=C(OCc1ccccc1)N1C[C@H](Nc2nc(Cl)nn3cccc23)[C@@H](O)[C@@H](O)C1 [A380] | < 10 µM

Same assay, conditions: SPR, Biacore 8K, 25° C.; Table 1E; read-out: ASGPR KD

Row | Kd | SMILES
38 | < 10 µM | C[C@H]1O[C@H](C2=CC3C(C2=O)[C@H]2CC[C@@H]3C2)[C@H](Oc2cccc(C(F)(F)F)n2)[C@@H](O)[C@H]1O (stereo partly shown) [A435B]

Same assay, conditions: SPR; Table 2; read-out: ASGPR SPR Binding KD

Row | Kd | SMILES
39 | < 0.1 µM | CC1(C)C(=O)c2ccc(-c3cnc(N4CCN5C(=O)N(CCCNC(=O)c6ccc7c(c6)C(F)(F)c6cc(C(=O)NC[C@H]8OC[C@H](Nc9cncc(C(F)(F)F)n9)[C@@H](O)[C@H]8O)ccc6-7)C[C@@H]5C4)nc3)nc2N1Cc1cccnc1C#N [compound 20]
40 | < 0.1 µM | CC1(C)C(=O)c2ccc(-c3cnc(N4CCN5C(=O)N(CCOCCOCCOCC(=O)NC(COCCC(=O)NCCOCCOCCOCCOC[C@H]6OC[C@H](Nc7cncc(C(F)(F)F)n7)[C@@H](O)[C@H]6O)COCCC(=O)NCCOCCOCCOCCOC[C@H]6OC[C@H](Nc7cncc(C(F)(F)F)n7)[C@@H](O)[C@H]6O)C[C@@H]5C4)nc3)nc2N1Cc1cccnc1C#N [compound 19]
